Assays:
[1] = system: Tyrosine-protein kinase ABL1 (Homo sapiens), P00519 [H396P]; details: Compound concentration 1000.0 nM
[2] = system: Tyrosine-protein kinase ABL1 (Homo sapiens), P00519 [M351T]; details: Compound concentration 1000.0 nM
[3] = system: Tyrosine-protein kinase ABL1 (Homo sapiens), P00519 [Y253F]; details: Compound concentration 1000.0 nM
[4] = target: Activin receptor type-1 (Homo sapiens) (UniProt Q04771); details: Compound concentration 1000.0 nM
[5] = target: Aurora kinase B (Homo sapiens) (UniProt Q96GD4); details: Compound concentration 1000.0 nM
[6] = target: Calcium/calmodulin-dependent protein kinase type 1 (Homo sapiens) (UniProt Q14012); details: Compound concentration 1000.0 nM
[7] = target: Cyclin-dependent kinase 4 (Homo sapiens) (UniProt P11802); details: Compound concentration 1000.0 nM
[8] = target: Cyclin-dependent kinase-like 1 (Homo sapiens) (UniProt Q00532); details: Compound concentration 1000.0 nM
[9] = target: Cyclin-dependent kinase-like 2 (Homo sapiens) (UniProt Q92772); details: Compound concentration 1000.0 nM
[10] = target: Cyclin-dependent kinase-like 3 (Homo sapiens) (UniProt Q8IVW4); details: Compound concentration 1000.0 nM
[11] = target: Serine/threonine-protein kinase Chk1 (Homo sapiens) (UniProt O14757); details: Compound concentration 1000.0 nM
[12] = target: Casein kinase I isoform delta (Homo sapiens) (UniProt P48730); details: Compound concentration 1000.0 nM
[13] = target: Megakaryocyte-associated tyrosine-protein kinase (Homo sapiens) (UniProt P42679); details: Compound concentration 1000.0 nM
[14] = system: Epidermal growth factor receptor (Homo sapiens), P00533 [L858R]; details: Compound concentration 1000.0 nM
[15] = target: Vascular endothelial growth factor receptor 3 (Homo sapiens) (UniProt P35916); details: Compound concentration 1000.0 nM
Vascular endothelial growth factor receptor 3 (Homo sapiens), sequence (P35916 whole entry): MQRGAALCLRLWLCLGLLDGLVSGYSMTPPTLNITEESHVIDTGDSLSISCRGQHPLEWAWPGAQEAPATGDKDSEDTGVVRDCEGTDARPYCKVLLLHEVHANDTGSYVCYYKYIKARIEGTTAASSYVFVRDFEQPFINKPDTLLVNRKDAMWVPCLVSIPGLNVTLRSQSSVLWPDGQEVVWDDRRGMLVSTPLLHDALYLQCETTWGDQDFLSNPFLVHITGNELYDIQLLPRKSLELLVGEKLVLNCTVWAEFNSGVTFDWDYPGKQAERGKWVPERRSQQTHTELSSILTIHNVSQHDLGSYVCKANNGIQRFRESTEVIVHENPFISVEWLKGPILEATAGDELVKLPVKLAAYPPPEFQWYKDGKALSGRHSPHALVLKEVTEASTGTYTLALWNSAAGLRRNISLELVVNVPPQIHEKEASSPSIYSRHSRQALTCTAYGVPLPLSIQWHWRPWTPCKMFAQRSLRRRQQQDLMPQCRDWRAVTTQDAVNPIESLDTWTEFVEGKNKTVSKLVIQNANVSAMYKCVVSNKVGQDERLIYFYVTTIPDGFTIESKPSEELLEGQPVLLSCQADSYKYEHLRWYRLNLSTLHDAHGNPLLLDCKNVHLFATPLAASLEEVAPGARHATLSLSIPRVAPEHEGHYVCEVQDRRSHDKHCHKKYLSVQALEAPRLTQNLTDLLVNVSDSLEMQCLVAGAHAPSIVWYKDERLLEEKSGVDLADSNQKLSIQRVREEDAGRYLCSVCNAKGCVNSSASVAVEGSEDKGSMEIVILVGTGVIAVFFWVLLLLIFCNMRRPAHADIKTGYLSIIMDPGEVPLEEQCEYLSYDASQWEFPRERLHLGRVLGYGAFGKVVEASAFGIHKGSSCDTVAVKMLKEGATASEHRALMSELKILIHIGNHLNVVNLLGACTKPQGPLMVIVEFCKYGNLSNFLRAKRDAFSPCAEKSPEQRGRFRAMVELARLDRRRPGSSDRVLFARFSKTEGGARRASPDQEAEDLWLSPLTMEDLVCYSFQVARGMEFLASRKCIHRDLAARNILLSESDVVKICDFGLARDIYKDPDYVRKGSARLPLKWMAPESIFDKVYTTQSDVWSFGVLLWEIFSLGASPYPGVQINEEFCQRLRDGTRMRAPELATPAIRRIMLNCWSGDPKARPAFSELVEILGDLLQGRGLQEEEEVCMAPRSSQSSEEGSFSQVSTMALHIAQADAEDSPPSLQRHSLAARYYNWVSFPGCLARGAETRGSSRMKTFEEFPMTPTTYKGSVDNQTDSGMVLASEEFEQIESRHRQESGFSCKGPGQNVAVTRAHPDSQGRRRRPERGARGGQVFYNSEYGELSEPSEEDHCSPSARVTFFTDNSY

[16] = target: Cyclin-G-associated kinase (Homo sapiens) (UniProt O14976); details: Compound concentration 1000.0 nM
[17] = target: Inhibitor of nuclear factor kappa-B kinase subunit alpha (Homo sapiens) (UniProt O15111); details: Compound concentration 1000.0 nM
[18] = target: Inhibitor of nuclear factor kappa-B kinase subunit epsilon (Homo sapiens) (UniProt Q14164); details: Compound concentration 1000.0 nM
[19] = system: Mast/stem cell growth factor receptor Kit (Homo sapiens), P10721 [V559D,T670I]; details: Compound concentration 1000.0 nM
[20] = target: LIM domain kinase 2 (Homo sapiens) (UniProt P53671); details: Compound concentration 1000.0 nM
LIM domain kinase 2 (Homo sapiens), sequence (P53671 whole entry, looked up, the tested form may be a part): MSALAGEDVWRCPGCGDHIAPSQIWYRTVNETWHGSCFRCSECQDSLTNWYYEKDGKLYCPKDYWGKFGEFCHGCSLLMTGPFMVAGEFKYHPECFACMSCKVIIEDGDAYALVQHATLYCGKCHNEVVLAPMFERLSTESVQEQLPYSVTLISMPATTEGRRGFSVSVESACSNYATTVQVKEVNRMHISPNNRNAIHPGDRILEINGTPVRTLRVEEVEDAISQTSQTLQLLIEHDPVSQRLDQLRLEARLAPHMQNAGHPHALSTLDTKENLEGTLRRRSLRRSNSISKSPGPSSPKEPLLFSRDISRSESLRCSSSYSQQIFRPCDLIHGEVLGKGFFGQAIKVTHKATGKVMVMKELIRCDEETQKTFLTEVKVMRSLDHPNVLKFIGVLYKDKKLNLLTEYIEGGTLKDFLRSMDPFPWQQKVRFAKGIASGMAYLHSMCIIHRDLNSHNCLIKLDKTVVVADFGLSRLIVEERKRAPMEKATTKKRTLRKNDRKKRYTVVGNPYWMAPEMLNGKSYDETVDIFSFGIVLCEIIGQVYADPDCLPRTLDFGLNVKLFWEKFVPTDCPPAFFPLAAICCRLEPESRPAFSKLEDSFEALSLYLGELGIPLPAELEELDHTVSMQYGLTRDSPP

[21] = target: Serine/threonine-protein kinase 10 (Homo sapiens) (UniProt O94804); details: Compound concentration 1000.0 nM
[22] = target: Dual specificity mitogen-activated protein kinase kinase 3 (Homo sapiens) (UniProt P46734); details: Compound concentration 1000.0 nM
Dual specificity mitogen-activated protein kinase kinase 3 (Homo sapiens), sequence (P46734 whole entry): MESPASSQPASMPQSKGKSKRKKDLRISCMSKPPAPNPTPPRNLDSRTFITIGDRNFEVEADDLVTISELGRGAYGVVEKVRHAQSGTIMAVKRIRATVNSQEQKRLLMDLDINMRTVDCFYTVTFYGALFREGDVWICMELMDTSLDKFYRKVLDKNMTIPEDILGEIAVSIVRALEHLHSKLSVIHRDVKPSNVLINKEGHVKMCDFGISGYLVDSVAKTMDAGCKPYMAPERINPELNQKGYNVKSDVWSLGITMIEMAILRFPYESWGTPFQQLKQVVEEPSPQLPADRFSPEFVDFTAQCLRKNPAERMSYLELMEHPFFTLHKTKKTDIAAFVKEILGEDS

[23] = system: Hepatocyte growth factor receptor (Homo sapiens), P08581 [M1250T]; details: Compound concentration 1000.0 nM
[24] = target: Serine/threonine-protein kinase NIM1 (Homo sapiens) (UniProt Q8IY84); details: Compound concentration 1000.0 nM
[25] = target: Mitogen-activated protein kinase 11 (Homo sapiens) (UniProt Q15759); details: Compound concentration 1000.0 nM
[26] = target: Mitogen-activated protein kinase 13 (Homo sapiens) (UniProt O15264); details: Compound concentration 1000.0 nM
Mitogen-activated protein kinase 13 (Homo sapiens), sequence (O15264 whole entry, canonical isoform): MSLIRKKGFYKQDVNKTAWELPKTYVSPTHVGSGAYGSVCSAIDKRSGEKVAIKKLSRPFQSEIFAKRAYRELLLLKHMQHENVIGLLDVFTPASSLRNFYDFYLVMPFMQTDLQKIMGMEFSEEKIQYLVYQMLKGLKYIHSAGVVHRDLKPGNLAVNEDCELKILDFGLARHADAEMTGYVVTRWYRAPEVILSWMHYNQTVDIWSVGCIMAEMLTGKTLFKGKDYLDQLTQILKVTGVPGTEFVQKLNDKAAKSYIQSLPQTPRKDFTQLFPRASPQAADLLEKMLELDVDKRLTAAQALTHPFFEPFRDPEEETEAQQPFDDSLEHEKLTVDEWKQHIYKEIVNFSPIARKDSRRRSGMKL

[27] = system: Phosphatidylinositol 4,5-bisphosphate 3-kinase catalytic subunit alpha isoform (Homo sapiens), P42336 [H1047Y]; details: Compound concentration 1000.0 nM
Phosphatidylinositol 4,5-bisphosphate 3-kinase catalytic subunit alpha isoform (Homo sapiens), P42336 [H1047Y], sequence (P42336 whole entry H1047Y, canonical isoform): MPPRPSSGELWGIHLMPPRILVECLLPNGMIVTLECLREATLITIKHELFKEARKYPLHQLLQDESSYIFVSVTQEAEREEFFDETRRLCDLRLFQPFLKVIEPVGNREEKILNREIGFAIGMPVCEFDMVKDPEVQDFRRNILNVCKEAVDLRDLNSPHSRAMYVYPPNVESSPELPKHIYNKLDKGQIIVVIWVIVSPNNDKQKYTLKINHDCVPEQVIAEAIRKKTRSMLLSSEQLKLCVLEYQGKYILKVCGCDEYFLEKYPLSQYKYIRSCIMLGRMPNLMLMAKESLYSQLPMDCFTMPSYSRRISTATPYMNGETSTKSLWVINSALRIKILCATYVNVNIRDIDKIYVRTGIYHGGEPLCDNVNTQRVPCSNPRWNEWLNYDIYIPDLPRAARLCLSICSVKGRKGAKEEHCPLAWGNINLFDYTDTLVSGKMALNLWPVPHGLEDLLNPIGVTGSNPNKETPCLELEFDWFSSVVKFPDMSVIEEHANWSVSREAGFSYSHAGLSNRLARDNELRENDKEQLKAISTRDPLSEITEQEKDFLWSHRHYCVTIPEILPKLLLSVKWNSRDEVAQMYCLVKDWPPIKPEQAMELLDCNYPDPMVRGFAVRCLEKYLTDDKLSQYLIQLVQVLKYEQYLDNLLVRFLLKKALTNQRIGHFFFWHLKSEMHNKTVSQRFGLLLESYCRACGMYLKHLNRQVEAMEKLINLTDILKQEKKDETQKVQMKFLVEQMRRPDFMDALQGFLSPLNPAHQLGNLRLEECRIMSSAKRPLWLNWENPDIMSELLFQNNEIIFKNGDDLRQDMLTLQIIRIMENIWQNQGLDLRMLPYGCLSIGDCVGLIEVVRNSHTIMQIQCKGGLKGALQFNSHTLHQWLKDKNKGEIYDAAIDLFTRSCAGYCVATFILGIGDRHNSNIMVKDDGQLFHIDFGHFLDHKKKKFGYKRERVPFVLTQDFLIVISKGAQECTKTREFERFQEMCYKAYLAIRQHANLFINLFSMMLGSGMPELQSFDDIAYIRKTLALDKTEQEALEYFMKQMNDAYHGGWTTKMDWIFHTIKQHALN

[28] = target: Phosphatidylinositol 4,5-bisphosphate 3-kinase catalytic subunit beta isoform (Homo sapiens) (UniProt P42338); details: Compound concentration 1000.0 nM
[29] = target: 1-phosphatidylinositol 3-phosphate 5-kinase (Homo sapiens) (UniProt Q9Y2I7); details: Compound concentration 1000.0 nM
[30] = target: Protein kinase C theta type (Homo sapiens) (UniProt Q04759); details: Compound concentration 1000.0 nM
Protein kinase C theta type (Homo sapiens), sequence (Q04759 whole entry, looked up): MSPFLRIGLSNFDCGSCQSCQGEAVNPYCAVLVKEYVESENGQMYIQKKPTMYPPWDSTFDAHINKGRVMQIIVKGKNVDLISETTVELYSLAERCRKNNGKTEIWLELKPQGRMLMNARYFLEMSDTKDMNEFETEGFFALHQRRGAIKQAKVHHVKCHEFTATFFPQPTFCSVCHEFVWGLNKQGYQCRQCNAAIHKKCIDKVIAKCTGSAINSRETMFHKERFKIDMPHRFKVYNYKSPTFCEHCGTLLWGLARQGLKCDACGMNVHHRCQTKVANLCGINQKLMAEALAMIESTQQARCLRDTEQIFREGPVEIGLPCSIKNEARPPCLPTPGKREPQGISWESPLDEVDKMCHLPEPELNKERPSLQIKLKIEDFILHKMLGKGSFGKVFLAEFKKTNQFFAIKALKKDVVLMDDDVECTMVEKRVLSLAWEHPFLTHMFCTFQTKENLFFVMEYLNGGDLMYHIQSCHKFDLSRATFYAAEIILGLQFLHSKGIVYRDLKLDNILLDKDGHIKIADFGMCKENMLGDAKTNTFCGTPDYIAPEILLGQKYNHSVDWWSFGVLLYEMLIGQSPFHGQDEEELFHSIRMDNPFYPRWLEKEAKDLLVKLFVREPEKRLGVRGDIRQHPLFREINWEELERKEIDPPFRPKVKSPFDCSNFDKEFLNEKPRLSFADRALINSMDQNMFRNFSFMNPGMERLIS

[31] = target: Serine/threonine-protein kinase RIO2 (Homo sapiens) (UniProt Q9BVS4); details: Compound concentration 1000.0 nM
[32] = target: Ribosomal protein S6 kinase alpha-6 (Homo sapiens) (UniProt Q9UK32); details: Compound concentration 1000.0 nM
[33] = target: Serine/threonine-protein kinase Sgk2 (Homo sapiens) (UniProt Q9HBY8); details: Compound concentration 1000.0 nM
[34] = target: Serine/threonine-protein kinase 16 (Homo sapiens) (UniProt O75716); details: Compound concentration 1000.0 nM
[35] = target: Serine/threonine-protein kinase 36 (Homo sapiens) (UniProt Q9NRP7); details: Compound concentration 1000.0 nM
[36] = target: TRAF2 and NCK-interacting protein kinase (Homo sapiens) (UniProt Q9UKE5); details: Compound concentration 1000.0 nM
[37] = target: Activated CDC42 kinase 1 (Homo sapiens) (UniProt Q07912); details: Compound concentration 1000.0 nM
[38] = target: Testis-specific serine/threonine-protein kinase 1 (Homo sapiens) (UniProt Q9BXA7); details: Compound concentration 1000.0 nM
[39] = target: Serine/threonine-protein kinase 32C (Homo sapiens) (UniProt Q86UX6); details: Compound concentration 1000.0 nM
Serine/threonine-protein kinase 32C (Homo sapiens), sequence (Q86UX6 whole entry): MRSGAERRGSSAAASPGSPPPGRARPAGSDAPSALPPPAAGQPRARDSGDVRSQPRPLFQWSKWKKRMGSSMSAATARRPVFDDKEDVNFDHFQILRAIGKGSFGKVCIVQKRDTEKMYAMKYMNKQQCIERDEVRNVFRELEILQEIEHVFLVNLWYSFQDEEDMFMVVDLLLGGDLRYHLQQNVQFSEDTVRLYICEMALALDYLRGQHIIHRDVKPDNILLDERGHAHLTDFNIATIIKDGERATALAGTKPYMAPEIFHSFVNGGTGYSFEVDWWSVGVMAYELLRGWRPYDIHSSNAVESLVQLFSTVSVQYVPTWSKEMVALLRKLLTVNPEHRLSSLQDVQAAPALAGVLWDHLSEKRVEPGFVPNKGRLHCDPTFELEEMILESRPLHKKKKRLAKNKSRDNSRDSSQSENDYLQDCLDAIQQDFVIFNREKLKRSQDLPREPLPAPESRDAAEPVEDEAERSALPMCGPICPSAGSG

[40] = target: 5-hydroxytryptamine receptor 1B (Homo sapiens) (UniProt P28222); details: Compound concentration 10.0 uM
[41] = target: Sodium-dependent serotonin transporter (Homo sapiens) (UniProt P31645); details: Compound concentration 10.0 uM
[42] = target: Kappa-type opioid receptor (Homo sapiens) (UniProt P41145); details: Compound concentration 10.0 uM
[43] = target: Histamine H1 receptor (Homo sapiens) (UniProt P35367); details: Compound concentration 10.0 uM
[44] = target: Histamine H3 receptor (Homo sapiens) (UniProt Q9Y5N1); details: Compound concentration 10.0 uM
[45] = target: Alpha-2A adrenergic receptor (Homo sapiens) (UniProt P08913); details: Compound concentration 10.0 uM
[46] = target: Beta-2 adrenergic receptor (Homo sapiens) (UniProt P07550); details: Compound concentration 10.0 uM

Cc1cc(-n2nc(Cc3cc(F)cc(C(F)(F)F)c3)nc2C)ccc1C(N)=O [TP-024]
inactive: residual activity [1] 97% | residual activity [2] 100% | residual activity [3] 90% | residual activity [4] 100% | residual activity [5] 87% | residual activity [6] 90% | residual activity [7] 100% | residual activity [8] 71% | residual activity [9] 100% | residual activity [10] 83% | residual activity [11] 100% | residual activity [12] 100% | residual activity [13] 100% | residual activity [14] 100% | residual activity [15] 97% | residual activity [16] 100% | residual activity [17] 100% | residual activity [18] 82% | residual activity [19] 100% | residual activity [20] 95% | residual activity [21] 100% | residual activity [22] 100% | residual activity [23] 80% | residual activity [24] 100% | residual activity [25] 90% | residual activity [26] 100% | residual activity [27] 78% | residual activity [28] 85% | residual activity [29] 70% | residual activity [30] 100% | residual activity [31] 100% | residual activity [32] 100% | residual activity [33] 100% | residual activity [34] 91% | residual activity [35] 100% | residual activity [36] 100% | residual activity [37] 100% | residual activity [38] 90% | residual activity [39] 100% | inhibition [40] 13.8% | inhibition [41] -1.29% | inhibition [42] 16% | inhibition [43] 8.06% | inhibition [44] 11.4% | inhibition [45] 8.93% | inhibition [46] -1.39%

Cc1nc(Cc2cccc(C(F)(F)F)c2)sc1-c1ccc(C(N)=O)nc1 [TP-024n]
inactive: residual activity [1] 87% | residual activity [2] 100% | residual activity [3] 88% | residual activity [4] 100% | residual activity [5] 100% | residual activity [6] 86% | residual activity [7] 99% | residual activity [8] 85% | residual activity [9] 92% | residual activity [10] 100% | residual activity [11] 100% | residual activity [12] 75% | residual activity [13] 100% | residual activity [14] 100% | residual activity [15] 100% | residual activity [16] 91% | residual activity [17] 100% | residual activity [18] 76% | residual activity [19] 91% | residual activity [20] 98% | residual activity [21] 100% | residual activity [22] 93% | residual activity [23] 92% | residual activity [24] 100% | residual activity [25] 95% | residual activity [26] 99% | residual activity [27] 100% | residual activity [28] 83% | residual activity [29] 75% | residual activity [30] 94% | residual activity [31] 98% | residual activity [32] 100% | residual activity [33] 95% | residual activity [34] 100% | residual activity [35] 100% | residual activity [36] 100% | residual activity [37] 100% | residual activity [38] 54% | residual activity [39] 87% | inhibition [40] 7.99% | inhibition [41] -7.18% | inhibition [42] 3.47% | inhibition [43] 9.3% | inhibition [44] 3.48% | inhibition [45] 4.44% | inhibition [46] 2.07%

Reference: ChEMBL document CHEMBL4507305, “Data for DCP probe TP-024” (2021)
